{"source": "paper PMC8333425", "about": "“Discovery of a dual Ras and ARF6 inhibitor from a GPCR endocytosis screen” (Nature Communications, 2021)", "test_in_all_cases": "Ras BRET sensor in cells overexpressing K-Ras mutants (Y32A, Y40A, Y32A/Y40A) and AT1R", "key": {"[1]": {"target": "T1, K-Ras Y32A, Y40A, Y32A/Y40A (Homo sapiens, UniProt P01116, Y32A)", "T1 construct": "expressed in transfected cells; host or cells: HEK293SL", "format": "cell-based", "settings": "Rasarfin 50 μM, K-Ras Y32A", "text": "(§1) Because Tyr32 and Tyr40, located on the switch I domain of Ras, are critical for stabilizing Rasarfin binding through interactions with both the chlorine and isopropyl moiety (Fig. 7a, c), we reasoned that substituting them for Ala residues would negatively impact Rasarfin’s inhibitory action on Ras. […] Because we wanted to assess the inhibitory action of Rasarfin over different Ras subtypes, we mutated the two tyrosine residues to an alanine in K-Ras (Y32A, Y40A, and Y32A/Y40A mutants) within the same Rasarfin binding site found in H-Ras (Lys^5-Thr^74). This domain and residues are perfectly conserved among the Ras family members[44],[45]. WT K-Ras and K-Ras mutants were overexpressed along with AT1R in cells and AngII-mediated activation of Ras was assessed using the Ras BRET sensor (Supplementary Fig. 11a).\n(§2) HEK293SL cells were seeded at a density of 7.5 × 10^5 cells per 100-mm dish and 24 h later, transiently transfected as such. For receptor internalization experiments, cells were transfected with 0.12 μg AT1R-RlucII, B2R-RlucII, or β2AR-RlucII and 0.48 μg of either rGFP-CAAX (to assess removal from the PM) or rGFP-FYVE (to assess accumulation in the endosomes). For β-arrestin recruitment assays, cells were transfected with 0.48 μg of receptor-YFP along with 0.12 μg of β-arrestin-RlucII. For β-arrestin/AP-2 binding experiments, cells were transfected with 1 μg Flag-AT1R, 1 μg β2-Adaptin-YFP, and 0.12 μg β-arrestin2-RlucII. For G protein activation, cells were transfected with 3 μg of sp-Flag-AT1R along with either 4.5 μg of the Gαq-polycistronic BRET sensor or 0.24 μg of the Gαi3-RlucII and 0.6 μg of GFP10-Gγ2 and Gβ1 sensors or 0.12 μg PKN-RBD-RlucII and 0.48 μg of rGFP-CAAX. For PKC activation, cells were transfected with 3 μg of sp-Flag-AT1R and 0.18 μg of the PKC sensor. For GTPase activation experiments, cells were transfected with 1 μg Flag-AT1R, 0.48 μg of rGFP-CAAX, and either 0.12 μg of GGA3-PBD-RlucII, PAK-CRIB-RlucII or Raf-RBD-RlucII. For biosensor validation experiments, cells were additionally transfected with 500 ng Flag-K-Ras-WT, Flag-K-Ras-G12V, Flag-K-Ras-SOS-CAAX, HA-ARF6-WT, HA-ARF6-T27N, Myc-Rac1-WT, Myc-Rac1-Q61L or Myc-Rac1-T17N. For PI3K/Akt activation experiments, cells were transfected with 0.48 μg of rGFP-CAAX and 0.12 μg of Akt (PH)-RlucII. After 18 h of transfection, the media was replaced and cells were divided for subsequent experiments. Cells were detached and seeded onto poly-L-ornithine-coated 96-well flat white bottom plates (BrandTech Scientific) at a density of 2.5 × 10^4 cells per well in media. The next day, cells were washed once with Tyrode’s buffer (140 mM NaCl, 2.7 mM KCl, 1 mM CaCl2, 12 mM NaHCO3, 5.6 mM D-glucose, 0.5 mM MgCl2, 0.37 mM NaH2PO4, 25 mM HEPES, pH 7.4) and left in Tyrode’s buffer. For kinetics of β-arrestin recruitment or β-arrestin binding to receptor and AP-2 experiments, cells were serum starved for 30 min, pretreated with 21 (50 µM) or Barbadin (100 µM) for 30 min, stimulated with 100 nM AngII or 1 µM BK and BRET signals were monitored at indicated times using a Victor X Light plate reader (PerkinElmer). Coelenterazine H (final concentration of 5 µM) was added 3–5 min prior to BRET measurements. Filter set was 460/80 nm and 535/30 nm for detecting the RlucII Renilla luciferase (donor) and YFP (acceptor) light emissions, respectively. The BRET ratio was determined by calculating the ratio of the light emitted by YFP over the light emitted by the RlucII. For G protein activation, cells were serum starved, pretreated with compounds for 30 min, stimulated with 100 nM AngII for 2 min (Gαq, Gαi3, and Rho sensors) or 5 min (PKC sensor). For the kinetics of GTPase and PI3K/Akt activation, cells were serum starved, pretreated with 21 (50 µM) or Wortmannin (200 nM) for 30 min, stimulated with ligand (100 nM AngII or 100 ng/ml EGF) and BRET signals were monitored at indicated times. […]"}, "[2]": {"target": "T2, K-Ras Y32A, Y40A, Y32A/Y40A (Homo sapiens, UniProt P01116, Y32A/Y40A)", "T2 construct": "expressed in transfected cells; host or cells: HEK293SL", "format": "cell-based", "settings": "Rasarfin 50 μM, K-Ras Y32A/Y40A, Bonferroni's multiple comparisons test", "text": "as §1, §2"}, "[3]": {"target": "T3, K-Ras Y32A, Y40A, Y32A/Y40A (Homo sapiens, UniProt P01116, Y40A)", "T3 construct": "expressed in transfected cells; host or cells: HEK293SL", "format": "cell-based", "settings": "Rasarfin 50 μM, K-Ras Y40A", "text": "as §1, §2"}, "[4]": {"test_system": "K-Ras Y32A, Y40A, Y32A/Y40A", "format": "cell-based, human", "settings": "50 μM", "text": "as §1, §2"}, "[5]": {"settings": "Bonferroni's multiple comparisons test"}}, "note": "“And” between values parts separate entries of the source, which are not always exact repeats. Equal values may be shown once."}
{"smiles": "CC(C)C(=O)N1CCN(c2ccc(NC(=O)c3cc4ccccc4o3)cc2Cl)CC1", "note": "[Compound 21]", "values": [{"measurement": "AngII-promoted BRET", "setting": "[1]", "value": "0.1037 and 0.088 and 0.0995 and 0.056"}, {"measurement": "AngII-promoted BRET, Mean Diff. DMSO - Rasarfin", "setting": "[1]; [5]", "value": 0.006083}, {"measurement": "AngII-promoted BRET, Mean Diff. DMSO - Rasarfin", "setting": "[2]", "value": 0.004167}, {"measurement": "AngII-promoted BRET", "setting": "[3]", "value": "0.072 and 0.05667 and 0.08167 and 0.04433"}, {"measurement": "AngII-promoted BRET, Mean Diff. DMSO - Rasarfin", "setting": "[3]; [5]", "value": 0.011}, {"measurement": "AngII-mediated activation of K-Ras Y32A, Y40A, Y32A/Y40A mutants (Ras BRET sensor)", "setting": "[4]", "value": "only WT was significantly inhibited by Rasarfin"}]}
